Measured values from publication PMC10135272, “Synthesis, Molecular Docking Study, and Biological Evaluation of New 4-(2,5-Dimethyl-1H-pyrrol-1-yl)-N’-(2-(substituted)acetyl)benzohydrazides as Dual Enoyl ACP Reductase and DHFR Enzyme Inhibitors” (Antibiotics, 2023).
In brackets after ≈: the same amount, converted by molar mass. Read-outs that look alike come from different tables or passages of the source.

Assays:
[1] = target: InhA (enoyl ACP reductase) (Mycobacterium tuberculosis, UniProt P9WGR1); assay: Enoyl ACP reductase (InhA) inhibition; type: biochemical; conditions: for enoyl ACP reductase inhibitory activity (in words): in vitro assay
[2] = system: M. tuberculosis H37Rv; assay: Antitubercular activity, Microplate Alamar Blue assay (MABA); type: cell-based; conditions: Mycobacterium tuberculosis, average of triplicate tests
[3] = system: S. aureus (Gram +ve); assay: Antibacterial activity, broth microdilution; type: cell-based; conditions: Staphylococcus aureus
[4] = system: E. coli (Gram −ve); assay: Antibacterial activity, broth microdilution; type: cell-based; conditions: Escherichia coli
[5] = target: MtDHFR (Mycobacterium tuberculosis, UniProt P9WNX1); assay: biochemical; type: biochemical; conditions: for MtDHFR inhibitory activity (in words): in vitro assay
[6] = MTT-based cytotoxicity; type: cell-based, human; conditions: human; MTT assay, A549 lung adenocarcinoma, means ± SEM of three independent experiments
Protocol: (§1) Cellular conversion of MTT (3-(4,5-dimethylthiazo-2-yl)-2,5-diphenyl-tetrazolium bromide) into a formazan product was performed to evaluate the cytotoxic activity (IC50) of some of the compounds against A549 (lung adenocarcinoma) MV cell lines up to a concentration of […] using a Promega Cell Titer 96 non-radioactive cell proliferation assay with cisplatin as the positive control. The IC50 values given in Table 6 are the averages ± SEM of three independent measurements.

[7] = MTT-based cytotoxicity; type: cell-based; conditions: African green monkey; MTT assay, Mammalian Vero cell lines, means ± SEM of three independent experiments; read-out: IC50 MV Cell Lines (cytotoxicity)
Protocol: as §1

[8] = system: A549 (lung adenocarcinoma) cell lines; assay: MTT-based cytotoxicity; type: cell-based, human
Protocol: as §1

[9] = system: Mammalian Vero cell lines (MV cell lines); assay: MTT-based cytotoxicity; type: cell-based
Protocol: as §1

InhA (enoyl ACP reductase), sequence (P9WGR1 whole entry, looked up): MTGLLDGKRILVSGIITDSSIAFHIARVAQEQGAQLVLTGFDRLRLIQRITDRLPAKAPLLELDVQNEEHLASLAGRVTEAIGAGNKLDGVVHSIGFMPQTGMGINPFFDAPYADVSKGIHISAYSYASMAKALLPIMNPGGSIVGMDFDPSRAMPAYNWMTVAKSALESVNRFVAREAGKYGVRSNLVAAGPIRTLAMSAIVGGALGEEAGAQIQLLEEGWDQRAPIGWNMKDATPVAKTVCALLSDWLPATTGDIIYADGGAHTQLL
MtDHFR, sequence (P9WNX1 whole entry): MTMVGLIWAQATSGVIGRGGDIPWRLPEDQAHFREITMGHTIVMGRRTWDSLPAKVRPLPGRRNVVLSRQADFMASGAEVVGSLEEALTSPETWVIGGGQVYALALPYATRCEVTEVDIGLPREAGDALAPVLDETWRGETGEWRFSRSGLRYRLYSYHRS

Row | Compound | inhibition at 50 µM [1] [%] | MIC [2] [µg/mL] | MIC [3] [µg/mL] | MIC [4] [µg/mL] | IC50 [5] [µM] | IC50 [6] [µM] | IC50 [7] [µM] | enoyl ACP reductase inhibitory activity (in words) [1] | MtDHFR inhibitory activity (in words) [5] | IC50 [8] [µM] | IC50 [9] [µM]
1 | COc1ccc(CC(=O)NNC(=O)c2ccc(-n3c(C)ccc3C)cc2)cc1 [Compound 5d, 4-(2,5-Dimethyl-1H-pyrrol-1-yl)-N′-(2-(4-methoxyphenyl)acetyl)benzohydrazide] | 32 | 3.25 (≈ 8.61 µM) | 3.12 (≈ 8.27 µM) | 100 (≈ 265 µM) | 85 | 214 ± 0.2 | 214 ± 0.6 |  |  |  | 
2 | Cc1ccc(C)n1-c1ccc(C(=O)NNC(=O)Cc2ccccc2)cc1 [Compound 5a, 4-(2,5-Dimethyl-1H-pyrrol-1-yl)-N′-(2-phenylacetyl)benzohydrazide] |  | 25 (≈ 72 µM) | 50 (≈ 144 µM) | 50 (≈ 144 µM) | 146 |  |  |  |  |  | 
3 | NC(=O)c1cnccn1 [Pyrazinamide, reference compound] |  | 3.12 (≈ 25.4 µM) |  |  |  |  |  |  |  |  | 
4 | Cc1ccc(CC(=O)NNC(=O)c2ccc(-n3c(C)ccc3C)cc2)cc1 [Compound 5c, 4-(2,5-Dimethyl-1H-pyrrol-1-yl)-N′-(2-(p-tolyl)acetyl)benzohydrazide] | 20 | 25 (≈ 69.2 µM) | 3.12 (≈ 8.63 µM) | 50 (≈ 138 µM) | 118 | 219 ± 0.7 | 221 ± 0.8 |  |  |  | 
5 | Cc1ccccc1CC(=O)NNC(=O)c1ccc(-n2c(C)ccc2C)cc1 [Compound 5b, 4-(2,5-Dimethyl-1H-pyrrol-1-yl)-N′-(2-(o-tolyl)acetyl)benzohydrazide] |  | 25 (≈ 69.2 µM) | 0.8 (≈ 2.21 µM) | 50 (≈ 138 µM) | 125 |  |  |  |  |  | 
6 | Cc1ccc(C)n1-c1ccc(C(=O)NNC(=O)Cc2ccc(Cl)cc2)cc1 [Compound 5f, N′-(2-(4-Chlorophenyl)acetyl)-4-(2,5-dimethyl-1H-pyrrol-1-yl)benzohydrazide] | 76 | 1.6 (≈ 4.19 µM) | 1.6 (≈ 4.19 µM) | 50 (≈ 131 µM) | 25 | 216 ± 0.5 | 215 ± 0.2 | promising enzyme inhibitory activity | promising enzyme inhibitory activity |  | 
7 | Cc1ccc(C)n1-c1ccc(C(=O)NNC(=O)Cc2cccc(Cl)c2)cc1 [Compound 5h, N′-(2-(3-Chlorophenyl)acetyl)-4-(2,5-dimethyl-1H-pyrrol-1-yl)benzohydrazide] |  | 3.25 (≈ 8.51 µM) | 6.25 (≈ 16.4 µM) | 50 (≈ 131 µM) | 30 |  |  |  |  |  | 
8 | Cc1ccc(C)n1-c1ccc(C(=O)NNC(=O)Cc2ccccc2Br)cc1 [Compound 5j, N′-(2-(2-Bromophenyl)acetyl)-4-(2,5-dimethyl-1H-pyrrol-1-yl)benzohydrazide] |  | 1.6 (≈ 3.75 µM) | 6.25 (≈ 14.7 µM) | 50 (≈ 117 µM) | 15 |  |  |  |  |  | 
9 | Cc1ccc(C)n1-c1ccc(C(=O)NNC(=O)Cc2ccc([N+](=O)[O-])cc2)cc1 [Compound 5n, 4-(2,5-Dimethyl-1H-pyrrol-1-yl)-N′-(2-(4-nitrophenyl)acetyl)benzohydrazide] |  | 1.6 (≈ 4.08 µM) | 12.5 (≈ 31.9 µM) | 50 (≈ 127 µM) | 15 |  |  |  |  |  | 
10 | Cc1ccc(C)n1-c1ccc(C(=O)NNC(=O)Cc2ccc(O)cc2)cc1 [Compound 5l, 4-(2,5-Dimethyl-1H-pyrrol-1-yl)-N′-(2-(4-hydroxyphenyl)acetyl)benzohydrazide] |  | 3.25 (≈ 8.94 µM) | 6.25 (≈ 17.2 µM) | 50 (≈ 138 µM) | 30 |  |  |  |  |  | 
11 | Cc1ccc(C)n1-c1ccc(C(=O)NNC(=O)Cc2ccc(Br)cc2)cc1 [Compound 5i, N′-(2-(4-Bromophenyl)acetyl)-4-(2,5-dimethyl-1H-pyrrol-1-yl)benzohydrazide] | 72 | 1.6 (≈ 3.75 µM) | 6.25 (≈ 14.7 µM) | 50 (≈ 117 µM) | 18 | 214 ± 0.4 | 218 ± 0.3 | promising enzyme inhibitory activity | promising enzyme inhibitory activity |  | 
12 | [H]/N=C(/N)N[C@H]1[C@H](O)[C@@H](O)[C@H](O[C@@H]2O[C@@H](C)[C@](O)(C=O)[C@H]2O[C@@H]2O[C@@H](CO)[C@H](O)[C@@H](O)[C@@H]2NC)[C@@H](N/C(N)=N\[H])[C@@H]1O [Streptomycin, reference compound] |  | 6.25 (≈ 10.7 µM) |  |  |  |  |  |  |  |  | 
13 | Cc1ccc(C)n1-c1ccc(C(=O)NNC(=O)Cc2ccccc2Cl)cc1 [Compound 5g, N′-(2-(2-Chlorophenyl)acetyl)-4-(2,5-dimethyl-1H-pyrrol-1-yl)benzohydrazide] |  | 3.25 (≈ 8.51 µM) | 3.12 (≈ 8.17 µM) | 50 (≈ 131 µM) | 26 |  |  |  |  |  | 
14 | O=C(O)c1cn(C2CC2)c2cc(N3CCNCC3)c(F)cc2c1=O [Ciprofloxacin, reference compound] |  |  | 2 (≈ 6.04 µM) | 2 (≈ 6.04 µM) |  |  |  |  |  |  | 
15 | Cc1ccc(C)n1-c1ccc(C(=O)NNC(=O)Cc2ccc(F)cc2)cc1 [Compound 5k, 4-(2,5-Dimethyl-1H-pyrrol-1-yl)-N′-(2-(4-flurophenyl)acetyl)benzohydrazide] | 88 | 0.8 (≈ 2.19 µM) | 1.6 (≈ 4.38 µM) | 50 (≈ 137 µM) | 10 | 219 ± 0.4 | 221 ± 0.3 | promising enzyme inhibitory activity | promising enzyme inhibitory activity |  | 
16 | NNC(=O)c1ccncc1 [INH, reference compound] |  |  |  |  |  |  |  |  |  | > 450 | > 450
17 | COc1ccccc1CC(=O)NNC(=O)c1ccc(-n2c(C)ccc2C)cc1 [Compound 5e, 4-(2,5-Dimethyl-1H-pyrrol-1-yl)-N′-(2-(2-methoxyphenyl)acetyl)benzohydrazide] |  | 6.25 (≈ 16.6 µM) | 6.25 (≈ 16.6 µM) | 100 (≈ 265 µM) | 78 |  |  |  |  |  | 
18 | Cc1ccc(C)n1-c1ccc(C(=O)NNC(=O)Cc2cccc(Br)c2)cc1 [Compound 5m, 4-(2,5-Dimethyl-1H-pyrrol-1-yl)-N′-(2-(3-bromophenyl)acetyl)benzohydrazide] |  | 3.25 (≈ 7.62 µM) | 12.5 (≈ 29.3 µM) | 50 (≈ 117 µM) | 18 |  |  |  |  |  | 
